Details: instrument: DT, single field, calibrated with Agilent tune mix (Agilent)

Structure (SMILES) | collision cross section (N2) ([M-H]-) [Å²] | other results
O=C1O[C@H](CO)[C@@H](O)[C@H](O)[C@H]1O [D-Glucono-1,5-lactone] | 130.59 | –
OC[C@@H](O)[C@H](O)[C@H](O)[C@@H](O)CO [Dulcitol] | 128.77 | collision cross section (N2) ([M+Na]+): 141.7 Å²
Nc1nc(=O)c2ncn([C@@H]3O[C@@H]4COP(=O)(O)O[C@H]4[C@H]3O)c2[nH]1 [cGMP] | – | collision cross section (N2) ([M+H]+): 172.8 Å²
C=C1CC[C@H](O)C/C1=C/C=C1\CCC[C@]2(C)[C@@H]([C@H](C)CCCC(C)(C)O)CC[C@@H]12 [25-hydroxyvitamin D3] | 200.06 | –
CNc1nc(=O)c2ncn([C@@H]3O[C@H](CO)[C@@H](O)[C@H]3O)c2[nH]1 [2-Methylguanosine] | – | collision cross section (N2) ([M+Na-2H]-): 166.02 Å²; collision cross section (N2) ([M+Na]+): 178.4 Å²
CC(C)=CCOP(=O)(O)OP(=O)(O)O [Dimethylallyl pyrophosphate] | 143.1 | –
CC1=C(/C=C/C(C)=C\C=C\C(C)=C\C(=O)O)C(C)(C)CCC1 [9-cis-Retinoic acid] | 200.01 | collision cross section (N2) ([M+H-H2O]+): 169.6 Å²
CC12CCC(=O)C=C1CCC1C2CCC2(C)C(C(=O)CO)CCC12 (stereo not given) [11-Deoxycorticosterone] | 184.42 | collision cross section (N2) ([M+H]+): 186.5 Å²
O=C(O)[C@H](O)[C@@H](O)[C@H](O)[C@H](O)COP(=O)(O)O [6-Phospho-D-gluconate] | – | collision cross section (N2) ([M+Na]+): 157.3 Å²
C[C@@H]1OC(OP(=O)(O)OP(=O)(O)OC[C@H]2O[C@@H](n3cnc4c(=O)nc(N)[nH]c43)[C@H](O)[C@@H]2O)[C@@H](O)[C@H](O)[C@@H]1O (stereo partly drawn) [GDP-L-Fucose] | 206.72 | collision cross section (N2) ([M+H]+): 217.2 Å²
Nc1ccccc1C(=O)O [Anthranilic acid] | 123.99 | collision cross section (N2) ([M+H-H2O]+): 118.8 Å²
CCCCCCCCCCCCCCCCCCCCCC(=O)O [Behenic acid] | 191.18 | –

The next lines start with results.

collision cross section (N2) ([M-H]-) [Å²] | Structure (SMILES) | other results
178.55 | O=c1ccn([C@@H]2O[C@H](COP(=O)(O)OP(=O)(O)OP(=O)(O)O)[C@@H](O)[C@H]2O)c(=O)[nH]1 [Uridine 5'-triphosphate] | –
163.36 | CCCCCCCCCCCCCCCC=O [Palmitaldehyde] | –
132.25 | O=C(O)C1(O)C[C@@H](O)C(O)[C@H](O)C1 (stereo not given in full) [Quinate] | collision cross section (N2) ([M+Na]+): 150.9 Å²
207.35 | Nc1nc(=O)c2ncn([C@@H]3O[C@H](COP(=O)(O)OP(=O)(O)O[C@H]4O[C@H](CO)[C@@H](O)[C@H](O)[C@@H]4O)[C@@H](O)[C@H]3O)c2[nH]1 [Guanosine diphosphate mannose] | collision cross section (N2) ([M+Na]+): 220.9 Å²
146.84 | COc1cc(/C=C/CO)cc(OC)c1O [Sinapyl alcohol] | collision cross section (N2) ([M+H-H2O]+): 136.5 Å²
178.79 | CC(C)CCCC(C)CCCC(C)CCCC(C)C(=O)O (stereo not given) [Pristanic acid] | collision cross section (N2) ([M+Na]+): 206.3 Å²
125.26 | O=C(O)CC(C(=O)O)C(O)C(=O)O (stereo not given) [Isocitrate] | –
267.79 | O=C(O)CCC1=C(CC(=O)O)c2cc3nc(cc4[nH]c(cc5[nH]c(cc1n2)c(CC(=O)O)c5CCC(=O)O)c(CC(=O)O)c4CCC(=O)O)C(CC(=O)O)=C3CCC(=O)O [Uroporphyrin I] | collision cross section (N2) ([M+H]+): 285.1 Å²
210.94 | CC1=C(C/C=C(\C)CCC[C@H](C)CCC[C@H](C)CCCC(C)C)C(=O)c2ccccc2C1=O [Vitamin K1] | collision cross section (N2) ([M+H]+): 216.1 Å²
290.65 | CCCCCCCCCCCCCC(=O)SCCNC(=O)CCNC(=O)C(O)C(C)(C)COP(=O)(O)OP(=O)(O)OC[C@H]1O[C@@H](n2cnc3c(N)ncnc32)[C@H](O)[C@@H]1OP(=O)(O)O (stereo not given in full) [Myristoyl-coenzyme A] | collision cross section (N2) ([M+H]+): 289.9 Å²

From the C3SDB collision cross section collection
